Laboratory results: US20220089602A1, “COMPOUNDS THAT INDUCE FERROPTIC CELL DEATH” (The Board of Trustees of the University of Illinois, priority 2019, published 2022)
“Also recorded” adds a separate entry of the source.

Assays:
GPX4 = target: T1, GPX4 (Homo sapiens, UniProt P36969); assay: GPX4 LC-MS based activity assay (PCOOH); assay type: cell-based; details: 10 μM, 1 hr, ES-2 cells
T1 construct: endogenous in cells; host or cells: ES-2 cells
Experimental: 1 million ES-2 cells/well, 6 well plate were allowed to attach overnight and then treated with DMSO, 10 μM of each compound: ferroptocide, raptinal, and RSL3 for 1 hr. GPX4 enzymatic activity assay was performed with a GPX4 specific substrate, phosphatidylcholine hydroperoxide (PC—OOH) as described previously with minor modifications (Cell 156, 317-331, (2014)). PCOOH was prepared as reported by Roveri and coworkers (Enzymol. Vol. 233 202-212 (Academic Press, 1994)) but using soybean lipoxidase type I-B (L7395, Milipore Sigma). Cells were washed with PBS and lysed by liquid nitrogen freeze-thaw method in the assay buffer (137 mM NaCl, 2.7 mM KCl, 8 mM Na2HPO4, 2 mM KH2PO4, 1 mM EDTA, 0.1 mM DFO; pH 7.4). Cell lysates were cleared by centrifugation at 14,000 rpm for 10 min at 4° C. Bradford assay was used to determine protein concentration; 200 μg of protein or assay buffer (PCOOH control sample) was mixed with 10 μL PC—OOH in methanol, 5 mM reduced glutathione, and assay buffer to a final reaction volume of 500 μL. The reaction mixture was incubated at 37° C. for 15 mins and extracted with 250 μL chloroform:methanol (2:1) solution. The lipid extract was evaporated under nitrogen and re-dissolved in 100% methanol before injecting into the LC-MS/MS instrument for PCOOH detection.

red blood cells = assay: Hemolysis assay; assay type: cell-based, human; details: 2 hr treatment with 333 μM
Experimental: Whole human blood in citrate phosphate dextrose was obtained from Bioreclamation LLC, stored at 4° C. and used before expiration date. 100 μL of whole blood was combined with 500 μL saline (0.9% NaCl) and centrifuged for 5 min at 300×g. The supernatant was carefully removed from the erythrocyte pellet and the liquid was discarded. Washed pellet 3× in 500 μL saline. The erythrocyte pellet was resuspended in 800 μL of Red Blood Cell Buffer (10 mM Na2HPO4, 150 mM NaCl, 1 mM MgCl2, pH 7.4). To a 0.5 mL eppendorf tube or a PCR plate was added 1.0 μL of 30× compound in DMSO and 19 μL RBC Buffer. For negative controls, 1.0 μL DMSO was combined with 19 μL RBC buffer. For positive controls, either 20 μL MilliQ H2O or 1.0 μL 30% Triton X-100 were combined with 19 μL RBC Buffer. Tubes or plates were briefly centrifuged. Next, 10 μL of washed erythrocyte suspension was added to each tube, then sealed. After incubation at 37° C. for 2 h, samples were centrifuged for 5 min at 300×g, and 20 μL of supernatant was carefully removed and transferred to wells of a clear flat-bottomed 384-well plate. Absorbance was measured at 540 nm. The data were plotted as compound concentration versus percent hemolysis, and fitted to OriginPro (OriginLab, Northampton, Mass.).

[1] = tested on: primary cancer cells from patients with metastatic cancers; assay: 72 hr cell viability Alamar Blue assay in primary patient-derived cells; assay type: cell-based, human; details: versus cisplatin, 5-FU, etoposide, PAC-1
Experimental: Cells were grown at 37° C. under a humidified 5% CO2 atmosphere, in a culture medium consisting of high-glucose (Life Technology) DMEM media for Mia PaCa-2, D54, U87, K7-M2, SK-MEL-5, and 3LL cells or RPMI 1640 for ES-2, HCT 116, MDA-MB-231, A549, T47D, B16-F10, and BT-549 cells or McCoy's 5A media for HT29 cells. All media were supplemented with 10% FBS (Gemini), penicillin (50 IU/ml), streptomycin (50 μg/ml) and glutamine (2 mM) (Cellgro). Primary cells were isolated from pleural effusions of metastatic patients at Carle Foundation Hospital (IRB #15149) following a protocol as described previously (Med. Sci. 2, 70-81, (2014)).
To a 384-well plate, 40 μL of 1.25× compound dilution or 1.25% DMSO-containing media was added (final volume of 1% DMSO). Concentrations of compounds tested were 100 μM to 100 nM. On each plate at least 3 technical replicates per compound were performed. Next, 10 μL of a 100,000 cells/mL suspension was added to each well, yielding a final concentration of 1,000 cells/well. To three wells in column 2 was added 1 μL of 10 mM doxorubicin (final concentration of 200 μM) as positive control of cell death. Plates were sealed with gas-permeable seals and incubated at 37° C. for 72 h. […] Fluorescence was read on a Molecular Devices SpectraMax 3 (excitation=555 nm, emission=585 nm, emission cutoff=570 nm). […]

4T1 cells = assay: Cellular lipid ROS production (C11-BODIPY); assay type: cell-based, murine; details: 10 μM
Experimental: ES-2, HCT 116, and 4T1 cells (1×10^5 cells/mL) were plated in 12-well plates. Cells were pre-treated for 2 hr with 100 μM deferoxamine followed by treatment with DMSO, 10 μM ferroptocide, 10 μM RSL3, or 100 μM TBHP for 1 hr, 1.5 hr and 2 hr respectively. Cells were washed with HBSS and incubated in the dark for 20 min with 5 μM C11-BODIPY probe. Cells were then washed 2× with HBSS and harvested at 1000×g, 3 min. After resuspension in 500 μl HBSS buffer, samples were analyzed with flow cytometry to record ten thousand events per sample in FL1 channel in BD LSR II Flow Cytometer (BD Bioscience). FCS express V6 De Novo software was used to generate histograms.

[2] = tested on: non-cancerous breast (MCF10A) cells; assay: Cell viability IC50 in non-cancerous cells; assay type: cell-based; details: Homo sapiens, MCF-10A
Experimental: (§1) To a 384-well plate, 40 μL of 1.25× compound dilution or 1.25% DMSO-containing media was added (final volume of 1% DMSO). Concentrations of compounds tested were 100 μM to 100 nM. On each plate at least 3 technical replicates per compound were performed. Next, 10 μL of a 100,000 cells/mL suspension was added to each well, yielding a final concentration of 1,000 cells/well. To three wells in column 2 was added 1 μL of 10 mM doxorubicin (final concentration of 200 μM) as positive control of cell death. Plates were sealed with gas-permeable seals and incubated at 37° C. for 72 h. At that time, 5 μL of Alamar blue (440 μM resazurin in sterile PBS) was added and plates were incubated for 3-4 hours. Fluorescence was read on a Molecular Devices SpectraMax 3 (excitation=555 nm, emission=585 nm, emission cutoff=570 nm). Wells were normalized to the average of untreated wells (0% cell death). The data were plotted as compound concentration versus percent dead cells and fitted to a logistic-dose response curve using OriginPro 2015 (OriginLab, Northampton, Mass.). The data were generated in triplicate, and IC50 values are reported as the average of three separate experiments along with standard error of the mean.

[3] = tested on: human skin fibroblast (HFF-1) cells; assay: Cell viability IC50 in non-cancerous cells; assay type: cell-based
Experimental: as §1

T1 sequence (P36969 whole entry): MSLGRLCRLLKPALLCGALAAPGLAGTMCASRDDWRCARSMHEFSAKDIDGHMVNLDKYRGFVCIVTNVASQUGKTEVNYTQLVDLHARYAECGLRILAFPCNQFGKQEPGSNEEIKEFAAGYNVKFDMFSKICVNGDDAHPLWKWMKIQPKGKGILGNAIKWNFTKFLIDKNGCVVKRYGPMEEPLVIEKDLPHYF

`C[C@@H]1CC[C@@]23C[C@H](O)C(=O)[C@@]2(O)[C@]1(C)[C@H](OC(=O)CCl)C[C@@H](C1=CCn2c(=O)n(-c4ccccc4)c(=O)n2C1)[C@@H]3C` [Compound P18, ferroptocide] was tested. Which GPX4 inhibition (GPX4) did it give?
Its GPX4 inhibition is “did not result in GPX4 inhibition; also recorded: does not cause direct GPX4 inhibition”.

What about the hemolytic activity (red blood cells; listed as Ferroptocide) of the same molecule?
The hemolytic activity was “no hemolytic activity”.

What about the hemolytic activity (red blood cells; listed as ferroptocide) of the same molecule?
The hemolytic activity was “Lack of hemolytic activity”.

And the “killing of primary cancer cells versus chemotherapeutics” value [1]?
Its value is “kills these cancer cells better than approved and experimental chemotherapeutics”.

And the “lipid ROS” value (4T1 cells)?
Its value is “induces lipid ROS”.

What about the IC50 [2] of the same molecule?
Its IC50 is 3.1 µM.

What about the IC50 [3] of the same molecule?
The IC50 was 4.1 µM.
